In patent US20160145247A1, “Aminomethyl-Biaryl Derivatives Complement Factor D inhibitors and uses thereof” (NOVARTIS AG, priority 2013, published 2016):

Target: T1, factor D (Homo sapiens, UniProt P00746)
T1 construct: made in house; host or cells: E. coli
Experiment: factor D inhibition assay of Biological Example 2
Assay type: biochemical

T1 sequence (P00746 26-253): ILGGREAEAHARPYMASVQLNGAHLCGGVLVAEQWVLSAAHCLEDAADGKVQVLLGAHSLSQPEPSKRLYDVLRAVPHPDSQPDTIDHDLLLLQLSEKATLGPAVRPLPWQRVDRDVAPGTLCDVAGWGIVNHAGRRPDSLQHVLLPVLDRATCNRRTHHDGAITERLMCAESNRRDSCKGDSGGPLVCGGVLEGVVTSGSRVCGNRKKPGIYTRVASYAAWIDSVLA

IC50	SMILES
11 nM	CNC(=O)c1cc(COc2cc(C(=O)Nc3ccccc3CC(=O)O)cc(-c3cccc(CN)c3)c2)ccn1 [Example 70, 2-(2-(3′-(Aminomethyl)-5-((2-(methylcarbamoyl)pyridin-4-yl)methoxy)-[1,1′-biphenyl]-3-ylcarboxamido)phenyl)acetic acid]
940 nM	Cc1cccc(NC(=O)c2cccc(-c3cc(F)cc(CN)c3)c2)c1CC(=O)O [Example 21-H]
32 nM	C[C@@H](N)c1cccc(-c2cc(NCC3CC3)cc(N(C)Cc3ccccc3CC(=O)O)c2)c1F [Example 216-AA]
5 nM	Cn1ccc(CNc2cc(C(=O)Nc3ccccc3CC(=O)O)cc(-c3cc(F)cc(CN)c3)c2)n1 [Example 14-C]
24 nM	C[C@@H](N)c1cccc(-c2cc(COc3ccccc3CC(=O)O)cc(CN3CCCOCC3)c2)c1F [Example 216-AI]
5 nM	COCCNc1cc(COc2ccccc2CC(=O)O)cc(-c2cccc([C@H](N)CO)c2)c1 [Example 84, (S)-2-(2-((3′-(1-Amino-2-hydroxyethyl)-5-((2-methoxyethyl)amino)-[1,1′-biphenyl]-3-yl)methoxy)phenyl)acetic acid]
13 nM	COCCc1cc(COc2ccccc2CC(=O)O)cc(-c2cccc([C@@H](C)N)c2)c1 [Example 120-W]
9 nM	C[C@@H](N)c1cccc(-c2cc(COc3ccccc3CC(=O)O)cc(N(C)CC3CC3)c2)c1F [Example 245, (R)-2-(2-((3′-(1-aminoethyl)-5-((cyclopropylmethyl)(methyl)amino)-2′-fluoro-[1,1′-biphenyl]-3-yl)methoxy)phenyl)acetic acid]
5 nM	C[C@H](N)c1cccc(-c2cc(COc3ccccc3CC(=O)O)cc(OCc3nccs3)c2)c1F [Example 214-N]
2 nM	C[C@@H](N)c1cccc(-c2cc(COc3ccccc3CC(=O)O)cc(NCCF)c2)c1F [Example 216-K]
11 nM	C[C@H](N)c1cccc(-c2cc(CCCF)cc(COc3ccccc3CC(=O)O)c2)c1F [Example 270, (S)-2-(2-((3′-(1-aminoethyl)-2′-fluoro-5-(3-fluoropropyl)-[1,1′-biphenyl]-3-yl)methoxy)phenyl)acetic acid]
6 nM	CCc1cc(COc2ccccc2CC(=O)O)cc(-c2cccc(CN)c2)c1 [Example 104, 2-(2-((3′-(aminomethyl)-5-ethyl-[1,1′-biphenyl]-3-yl)methoxy)phenyl)acetic acid]
39 nM	C[C@H](N)c1cccc(-c2cc(COc3ccccc3CC(=O)O)cc(OCC3(C)CC3)c2)c1F [Example 260, (S)-2-(2-((3′-(1-aminoethyl)-2′-fluoro-5-((1-methylcyclopropyl)methoxy)-[1,1′-biphenyl]-3-yl)methoxy)phenyl)acetic acid]
9 nM	NCc1cccc(-c2cc(OC[C@H]3CCCO3)cc(C(=O)Nc3ccccc3CC(=O)O)c2)c1 [Example 74-D, (R)-2-(2-(3′-(Aminomethyl)-5-((tetrahydrofuran-2-yl)methoxy)-[1,1′-biphenyl]-3-ylcarboxamido)phenyl)acetic acid]
86 nM	NCc1cc(F)cc(-c2cccc(C(=O)Nc3c(Br)cccc3CC(=O)O)n2)c1 [Example 21-E]
88 nM	NCc1ccnc(-c2cc(COc3ccccc3CC(=O)O)cc(OC[C@H]3CCCO3)c2)c1 [Example 138-B]
3 nM	NCc1cccc(-c2ccc3c(c2)C(Oc2ccccc2CC(=O)O)CCC3)c1 (single isomer, unassigned) [175 b) (tr = 4.1 min), (+) or (−)-(2-((7-(3-(aminomethyl)phenyl)-1,2,3,4-tetrahydronaphthalen-1-yl)oxy)phenyl)acetic acid]
13 nM	C[C@@H](N)c1cccc(-c2cc(COc3ccccc3CC(=O)O)cc(N(C)C[C@H]3CCCO3)c2)c1F [Example 216-I]
14 nM	C[C@H](N)c1cccc(-c2cc(COc3ccccc3CC(=O)O)cc(OCc3cncn3C)c2)c1F [Example 214-P]
48 nM	N[C@H](C(=O)O)c1cccc(-c2cccc(COc3ccccc3CC(=O)O)c2)c1 [Example 193, (S)-2-Amino-2-(3′-((2-(carboxymethyl)phenoxy)methyl)-[1,1′-biphenyl]-3-yl)acetic acid]
74 nM	NCc1cccc(-c2cc(Cl)cc(C(=O)Nc3ccccc3CC(=O)O)n2)c1 [Example 41, 2-(2-(6-(3-(Aminomethyl)phenyl)-4-chloropicolinamido)phenyl)acetic acid]
346 nM	C[C@@H](N)c1cc(-c2cccc(COc3ccccc3CC(=O)O)c2)ccn1 [Example 142-D]
44 nM	C[C@@H](N)c1cccc(-c2cccc(N(C)Cc3ccccc3CC(=O)O)c2)c1F [Example 220-D, (R)-2-(2-(((3′-(1-aminoethyl)-2′-fluoro-[1,1′-biphenyl]-3-yl)(methyl)amino)methyl)phenyl)acetic acid]

IC50	SMILES
9 nM	C[C@@H](N)c1cccc(-c2cc(COc3ccccc3CC(=O)O)cc(OCc3ccncn3)c2)c1F [Example 214-J]
35 nM	NC(CF)c1cccc(-c2cc(CNCC(F)(F)F)cc(COc3ccccc3CC(=O)O)c2)c1F (stereo not drawn) [Example 285-A]
5 nM	N[C@H](CO)c1cccc(-c2cc(COc3ccccc3CC(=O)O)cc(NCC3CCCO3)c2F)c1 (mixture of isomers) [Example 157, 2-(2-((3′-((S)-1-Amino-2-hydroxyethyl)-6-fluoro-5-(((tetrahydrofuran-2-yl)methyl)amino)-[1,1′-biphenyl]-3-yl)methoxy)phenyl)acetic acid]
45 nM	CC(C)C(=O)Nc1cc(C(=O)Nc2ccccc2CC(=O)O)cc(-c2cc(F)cc(CN)c2)c1 [Example 97, 2-(2-(3′-(Aminomethyl)-5′-fluoro-5-isobutyramido-[1,1′-biphenyl]-3-ylcarboxamido)phenyl)acetic acid]
24 nM	C[C@@H](N)c1cccc(-c2cc(COc3ccccc3CC(=O)O)cc(N(C)CCF)c2)c1F [Example 216-L]
22 nM	Cn1nc(C2CC2)cc1Nc1cc(C(=O)Nc2ccccc2CC(=O)O)cc(-c2cc(F)cc(CN)c2)c1 [Example 78-B, 2-(2-(3′-(Aminomethyl)-5-((3-cyclopropyl-1-methyl-1H-pyrazol-5-yl)amino)-5′-fluoro-[1,1′-biphenyl]-3-ylcarboxamido)phenyl)acetic acid]
3 nM	C[C@@H](N)c1cccc(-c2cc(COc3ccccc3CC(=O)O)cc(OCc3ccncc3)c2)c1F [Example 214-F]
2 nM	NCc1cccc(-c2ccc3c(c2)C(Oc2ccccc2CC(=O)O)CC3)c1 (racemic) [Example 162, (±)-2-(2-((6-(3-(Aminomethyl)phenyl)-2,3-dihydro-1H-inden-1-yl)oxy)phenyl)acetic acid]
13 nM	C[C@@H](N)c1cccc(-c2cc(CCc3ccncc3)cc(COc3ccccc3CC(=O)O)c2)c1F [Example 216-P]
113 nM	CCC[C@@H](N)c1cccc(-c2cc(COc3ccccc3CC(=O)O)cc(NCCOC)c2)c1 [Example 201, (R)-2-(2-((3′-(1-Aminobutyl)-5-((2-methoxyethyl)amino)-[1,1′-biphenyl]-3-yl)methoxy)phenyl)acetic acid]
41 nM	C[C@@H](N)c1cccc(-c2cc(COc3ccccc3CC(=O)O)cc(OCC3(C)COC3)c2)c1F [Example 262, (R)-2-(2-((3′-(1-aminoethyl)-2′-fluoro-5-((3-methyloxetan-3-yl)methoxy)-[1,1′-biphenyl]-3-yl)methoxy)phenyl)acetic acid]
490 nM	NC(CCF)c1cccc(-c2cccc(COc3ccccc3CC(=O)O)c2)c1 (stereo not drawn) [Example 278-B, 2-(2-((3′-(1-amino-3-fluoropropyl)-[1,1′-biphenyl]-3-yl)methoxy)phenyl)acetic acid]
21 nM	NCc1cccc(-c2ccc(C(F)(F)F)c(COc3ccccc3CC(=O)O)c2)c1 [Example 165, 2-(2-((3′-(Aminomethyl)-4-(trifluoromethyl)-[1,1′-biphenyl]-3-yl)methoxy)phenyl)acetic acid]
3 nM	NCc1cccc(-c2cc(COc3ccccc3CC(=O)O)cc(NC[C@@H]3CCCO3)c2)c1 [Example 140, (S)-2-(2-((3′-(Aminomethyl)-5-(((tetrahydrofuran-2-yl)methyl)amino)-[1,1′-biphenyl]-3-yl)methoxy)phenyl)acetic acid]
22 nM	N[C@H](CO)c1cccc(-c2cc(COc3ccccc3CC(=O)O)cc(C3CC3)c2)c1 [Example 109-B, (S)-2-(2-((3′-(1-Amino-2-hydroxyethyl)-5-cyclopropyl-[1,1′-biphenyl]-3-yl)methoxy)phenyl)acetic acid]
12800 nM	NCc1cccc(-c2cncc(C(=O)Nc3ccccc3CC(=O)O)c2)c1 [Example 40, 2-(2-(5-(3-(Aminomethyl)phenyl)nicotinamido)phenyl)acetic acid]
62 nM	NCc1cc(F)cc(-c2nc(C(=O)Nc3ccccc3CC(=O)O)cs2)c1 [Example 29, 2-(2-(2-(3-(aminomethyl)-5-fluorophenyl)thiazole-4-carboxamido)phenyl)acetic acid]
470 nM	NCc1cccc(-c2cccc(CCc3ccccc3CC(=O)O)c2)c1 [Example 16-D, 2-(2-(2-(3′-(Aminomethyl)-[1,1′-biphenyl]-3-yl)ethyl)phenyl)acetic acid]
13 nM	C[C@@H](N)c1cccc(-c2cc(COc3ccccc3CC(=O)O)cc(C3CCCCC3)c2)c1F [Example 243-D, (R)-2-(2-((3′-(1-aminoethyl)-5-cyclohexyl-2′-fluoro-[1,1′-biphenyl]-3-yl)methoxy)phenyl)acetic acid]
6 nM	NCc1cccc(-c2cc(CNC(c3ccccc3)C(F)(F)F)cc(COc3ccccc3CC(=O)O)c2)c1 (stereo not drawn) [Example 286-E, 2-(2-((3′-(aminomethyl)-5-(((2,2,2-trifluoro-1-phenylethyl)amino)methyl)-[1,1′-biphenyl]-3-yl)methoxy)phenyl)acetic acid]
6 nM	NCc1cccc(-c2cc(COc3ccccc3CC(=O)O)cc(C(Nc3ccccc3)C(F)(F)F)c2)c1 (stereo not drawn) [Example 208-C]
190 nM	COCc1cc(COc2ccccc2CC(=O)O)cc(-c2cccc([C@H](C)N)c2)c1 [Example 120-K]
